Results as given in patent US20150105252A1, “SUBSTITUTED PYRAZOLES AS HERBICIDES” (E I DU PONT DE NEMOURS AND COMPANY, priority 2013, published 2015).

Key:
[1] = test system: cocklebur; assay: Test C postemergence; type: in vivo, Xanthium strumarium; conditions: for Cocklebur plant response rating: scale 0 to 100
Description: (§1) Seeds of plant species selected from blackgrass (Alopecurus myosuroides), ryegrass, Italian (Italian ryegrass, Lolium multiflorum), wheat (winter wheat, Triticum aestivum), galium (catchweed bedstraw, Galium aparine), corn (Zea mays), crabgrass, large (large crabgrass, Digitaria sanguinalis), foxtail, giant (giant foxtail, Setaria faberii), johnsongrass (Sorghum halepense), lambsquarters (Chenopodium album), morningglory (Ipomoea coccinea), nutsedge, yellow (yellow nutsedge, Cyperus esculentus), pigweed (redroot pigweed, Amaranthus retroflexus), ragweed (common ragweed, Ambrosia elation), soybean (Glycine max), barnyardgrass (Echinochloa crus-galli), oilseed rape (Brassica napus), waterhemp (common waterhemp, Amaranthus rudis), oat, wild (wild oat, Avena fatua), kochia (Kochia scoparia), Surinam grass (Brachiaria decumbens), foxtail, green (green foxtail, Setaria viridis), goosegrass (Eleusine indica), bromegrass, downy (downy bromegrass, Bromus tectorum), nightshade (eastern black nightshade, Solanum ptycanthum), cocklebur (common cocklebur, Xanthium strumarium), cupgrass, woolly (woolly cupgrass, Eriochloa villosa), bermudagrass (Cynodon dactylon), sunflower, (common oilseed sunflower, Helianthus annuus), Russian thistle (Salsola kali), and velvetleaf (Abutilon theophrasti) were planted into a blend of loam soil and sand and treated preemergence with test chemicals formulated in a non-phytotoxic solvent mixture which included a surfactant.
(§2) At the same time, plants selected from these crop and weed species and also chickweed (common chickweed, Stellaria media), canarygrass (littleseed canarygrass, Phalaris minor), and deadnettle (henbit deadnettle, Lamium amplexicaule), were planted in pots containing Redi-Earth® planting medium (Scotts Company, 14111 Scottslawn Road, Marysville, Ohio 43041) comprising spaghnum peat moss, vermiculite, wetting agent and starter nutrients and treated with postemergence applications of test chemicals formulated in the same manner. Plants ranged in height from 2 to 18 cm (1- to 4-leaf stage) for postemergence treatments. Treated plants and controls were maintained in a greenhouse for 13 to 15 days, after which time all species were compared to controls and visually evaluated. Plant response ratings, summarized in Table C, are based on a scale of 0 to 100 where 0 is no effect and 100 is complete control. A dash (-) response means no test result.

[2] = test system: barley; assay: Test C postemergence; type: in vivo, Hordeum vulgare
[3] = test system: bermudagrass; assay: Test C postemergence; type: in vivo, Cynodon dactylon; conditions: for Bermudagrass plant response rating: scale 0 to 100
Description: as §1, §2

[4] = test system: cupgrass, woolly; assay: Test C postemergence; type: in vivo, Eriochloa villosa; conditions: for Cupgrass, Woolly plant response rating: scale 0 to 100
Description: as §1, §2

[5] = test system: galium; assay: Test A postemergence; type: in vivo, Galium aparine
In short: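 Injury readout: eye-scored versus untreated controls, 0 to 100. Exposure period: ~10 days, greenhouse. Application: soil-directed spray over sown seed (pre) or spray on seedlings 2–10 cm tall with one or two leaves (post), compound carried in non-phytotoxic solvent including surfactant.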

[6] = postemergence, 250 g ai/ha, scale 0 to 100 (0 no effect, 100 complete control)
[7] = postemergence, 62 g ai/ha, scale 0 to 100, 0 no effect, 100 complete control
[8] = postemergence, 125 g ai/ha, scale 0 to 100, 0 no effect, 100 complete control
[9] = 250 g ai/ha, scale 0 to 100 (0 no effect, 100 complete control)
[10] = Postemergence, 500 g ai/ha, 0 to 100 scale (0 no effect, 100 complete control)
[11] = postemergence, 125 g ai/ha, about 10 days, visual rating on 0 to 100 scale (0 no effect, 100 complete control)

Compound | Cocklebur plant response rating ([1]; Postemergence, 31 g ai/ha) | Plant response rating, Cocklebur [1, 6] | Plant response rating, Cocklebur [1, 7] | Plant response rating, Cocklebur [1, 8] | Plant response rating, Barley [2, 9] | Bermudagrass plant response rating ([3]; Postemergence, 31 g ai/ha) | Plant response rating, Bermudagrass [3, 6] | Plant response rating, Bermudagrass [3, 7] | Plant response rating, Bermudagrass [3, 8] | Cupgrass, Woolly plant response rating ([4]; Postemergence, 31 g ai/ha) | Plant response rating, Cupgrass, Woolly [4, 6] | Plant response rating, Cupgrass, Woolly [4, 7] | Plant response rating, Cupgrass, Woolly [4, 8] | Cocklebur plant response rating ([1]; postemergence, 62 g ai/ha) | Bermudagrass plant response rating ([3]; postemergence, 62 g ai/ha) | Cupgrass, Woolly plant response rating ([4]; postemergence, 62 g ai/ha) | Galium plant response rating [5, 10] | Galium plant response rating [5, 11] | Plant response rating, Barley ([2]; 125 g ai/ha, scale 0 to 100, 0 no effect, 100 complete control) | Galium plant response rating ([5]; Postemergence, 125 g ai/ha, 0 to 100 scale, 0 no effect, 100 complete control)
CCc1cc(C(=O)NOC(C)C)nn1Cc1cccc(OC(F)(F)F)c1 [Compound 70] | 10 | 45 | 15 | 20 | 25 | 5 | 10 | 5 | 10 | 0 | 20 | 0 | 15 |  |  |  |  |  |  | 
Cc1cc(C(=O)NCC(F)(F)F)nn1Cc1ccnc(C(F)(F)F)c1 [Compound 74] | 20 | 55 |  | 50 | 5 | 5 | 5 |  | 5 | 5 | 20 |  | 15 | 20 | 5 | 10 |  |  |  | 
CCCNC(=O)c1cc(OCC)n(Cc2ccnc(OC(F)F)c2)n1 [Compound 136] |  |  |  |  |  |  |  |  |  |  |  |  |  |  |  |  | 100 | 90 |  | 
CCCNC(=O)c1cc(CC)n(Cc2cccc(OC(F)(F)F)c2)n1 [Compound 27] | 20 | 40 | 25 | 35 | 30 | 0 | 25 | 5 | 5 | 0 | 20 | 5 | 10 |  |  |  |  |  | 20 | 
CCCc1cc(C(=O)NC2CC2)nn1Cc1ccnc(OC(F)F)c1 [Compound 205] |  |  |  |  |  |  |  |  |  |  |  |  |  |  |  |  | 90 |  |  | 90
CCCc1cc(C(=O)NCC(F)(F)F)nn1Cc1ccnc(OC(F)F)c1 [Compound 127] |  |  |  |  |  |  |  |  |  |  |  |  |  |  |  |  | 90 | 90 |  | 
